# Assay: Azithromycin solubility in organic solvents
# Assay type: physicochemical
smiles,measurement,setting,value
"CC[C@H]1OC(=O)[C@H](C)[C@@H](O[C@H]2C[C@@](C)(OC)[C@@H](O)[C@H](C)O2)[C@H](C)[C@@H](O[C@@H]2O[C@H](C)C[C@H](N(C)C)[C@H]2O)[C@](C)(O)C[C@@H](C)CN(C)[C@H](C)[C@@H](O)[C@]1(C)O [Azithromycin, (2R,3S,4R,5R,8R,10R,11R,12S,13S,14R)-13-[(2,6-dioxy-3-C-methyl-3-O-methyl-a-L-ribohexopyranozyl)oxy]-2-ethyl-3,4, 10-trihydroxy-3,5,6,8,10,12,14-heptamethyl-11-[[3,4,6-trideoxy-3-(dimethylamino)-b-D-xylo-hexapyranozyl]oxy]-1-ox-6-azacyclopentadecane-15-one]",Maximum azithromycin conc.,solvent 2-Pyrrolidone,28.9%
same,Maximum azithromycin conc.,"solvent 3,3-dimethyl-2-pyrrolidone",26.4%
same,Maximum azithromycin conc.,solvent Dimethylacetamide,32.1%
same,Maximum azithromycin conc.,solvent Dimethylsulfoxide,26.4%
same,Maximum azithromycin conc.,solvent N-ethoxy-2-pyrrolidone,23.3%
same,Maximum azithromycin conc.,solvent N-ethyl-2-pyrrolidone,25.8%
same,Maximum azithromycin conc.,solvent N-methyl-2-pyrrolidone,31.2%
same,Maximum azithromycin conc.,solvent N-octyl-2-pyrrolidone,21.5%
same,Maximum azithromycin conc.,solvent Propylene glycol,13.4%
same,Maximum azithromycin conc.,solvent Transcutol,10.2%
